Measurements taken from patent US10285986B2, “Compounds and anti-tumor NQO1 substrates” (The Board of Trustees of the University of Illinois, priority 2011, dated 2019).
Values after ≈ are worked out from the molar mass of the structure shown. Read-outs that look alike come from different tables or passages of the source. Marks after values point to notes of the source that are not given here.

Key:
[1] = target: NQO1 (Homo sapiens, UniProt P15559); assay: NQO1 enzymatic measurements in vitro; type: biochemical; conditions: 1 μM substrate
Protocol: As further evidence that the activity of these DNQ derivatives is dependent on their ability to be reduced by NQO1, full enzymatic measurements in vitro were performed. We found a strong correlation between catalytic efficiency of substrates in vitro and their cell culture toxicity. […] This provides strong evidence that the cytotoxicity of DNQ and its derivatives are dependent primarily upon the activity of NQO1 within the cell.

[2] = Solubility in organic solvents; type: physicochemical; conditions: for solubility: organic solvent or mixture, thermodynamic from solid
Protocol: The solubility of DNQ derivatives in organic solvents was determined by measuring the amount of a given solvent required to dissolve a known amount of compound. Solvent was added to the compound in 50 μL aliquots and the slurry was sonicated. […] Solubility was assessed in DMSO, dichloromethane, and 33% methanol in dichloromethane (FIGS. 9, 10, and 11, respectively).

[3] = test system: MCF-7 cells; assay: Cytotoxicity to MCF-7 cells with or without 25 μM dicoumarol (sulforhodamine B assay); type: cell-based, human
Protocol: The NQO1-dependent cytotoxicity of the first set of derivatives was determined in MCF-7 cells which express high levels of NQO1. Cells were exposed to DNQ for 2 hours in the presence or absence of 25 μM DIC. The media was then removed and cells were washed once with media then fresh media was added and the cells were incubated for 72 hours. Cell death was assessed using the sulforhodamine B assay previously described. […] Substitution off the nitrogen appeared well tolerated (4-14 and 4-15).
The DNQ derivatives synthesized were assayed for their toxicity to MCF-7 cells with or without DIC. The data from these experiments is organized in Table 4.2. […] This tolerance of sterically-demanding substituents corresponds with a flexible and promiscuous NQO1 active site. The poor activity of hydroxyl derivative 4-41 may be a result of either poor binding with the largely hydrophobic NQO1 active site or with an excessively strong substrate-enzyme interaction because of hydrogen bonding.

[4] = Solubility in organic solvents; type: physicochemical; conditions: organic solvent or mixture, thermodynamic from solid; THF; Table 1
[5] = Aqueous solubility in pH 7.4 PBS by LC-MS; type: physicochemical; conditions: phosphate buffered saline, pH 7.4, aqueous buffer, thermodynamic from solid, PBS pH 7.4; Table 4.3
Protocol: The aqueous solubility of DNQ at pH 7.4 in phosphate buffered saline (PBS) was measured by LC-MS. DNQ was sonicated for 30 minutes in PBS then undissolved solid was removed by filtration through a 0.45 μm syringe filter and the filtrate was analyzed by LC-MS (λ=275 nm, ESI-TOF in negative mode). The optimal sonication time was determined by sonicating DNQ for 1, 5, 10, and 30 minutes. While the concentration of DNQ in solution increased substantially between 1, 5, and 10 minutes, there was only a minor difference between 10 and 30 minutes. During the 30 minute sonication the water bath warmed to 45° C. (samples were cooled to room temperature before filtration). A calibration curve was generated from 1-100 μM by dissolving DNQ in methanol to a concentration of 500 μM and making dilutions of this stock in 80:20 water:methanol. The calibration curve (measure by UV absorbance) was linear over this range; 1 μM was approximately the limit of detection. […] The solution was very pale yellow.
The aqueous solubility of the compounds was determined by an LC-MS assay as described in the specification above. We applied the calibration curve generated for DNQ to the derivatives under the assumption that the UV profile of the derivatives of DNQ would be similar to that of DNQ.
After sonication and filtration most of the aqueous solutions were colorless. The solutions of DNQ, 4-31, and 4-37 were faintly yellow while 4-8, 4-14 and 4-41 were substantially more colored. The solution of 4-8, 4-14 and 4-41 were diluted 10-fold with PBS prior to LC-MS analysis to ensure that the concentrations fell within the range of the calibration curve.

[6] = 2:1 CH2Cl2:MeOH, Table 4.3, read-out: Solubility in 2:1 CH2Cl2:MeOH
[7] = CH2Cl2:MeOH 2:1, Table 1, read-out: CH2Cl2:MeOH 2:1 solubility
[8] = CH2Cl2, Table 1, read-out: CH2Cl2 solubility
[9] = DMSO, Table 1, read-out: DMSO solubility
[10] = Homo sapiens, MCF7, Table 1, read-out: MCF7 IC50
[11] = Homo sapiens, MCF7, Table 4.2, no DIC, ± s.e., read-out: IC50 vs. MCF-7 cells
[12] = Homo sapiens, MCF7, classification in figure legends of FIGS. 7-11, read-out: IC50 ("active" / generally "inactive" compounds)
[13] = Homo sapiens, MCF7, read-out: IC50 vs. MCF-7 cells +25 μM DIC, Table 4.2, +25 μM DIC, ± s.e.
[14] = Homo sapiens, MCF7, 2 h, Table 4.1, 2 h exposure, no DIC, ± s.e., read-out: IC50 vs. MCF-7 cells
[15] = Homo sapiens, MCF7, read-out: IC50 vs. MCF-7 cells +25 μM DIC, Table 4.1, +25 μM DIC, ± s.e.

NQO1, sequence (P15559 whole entry): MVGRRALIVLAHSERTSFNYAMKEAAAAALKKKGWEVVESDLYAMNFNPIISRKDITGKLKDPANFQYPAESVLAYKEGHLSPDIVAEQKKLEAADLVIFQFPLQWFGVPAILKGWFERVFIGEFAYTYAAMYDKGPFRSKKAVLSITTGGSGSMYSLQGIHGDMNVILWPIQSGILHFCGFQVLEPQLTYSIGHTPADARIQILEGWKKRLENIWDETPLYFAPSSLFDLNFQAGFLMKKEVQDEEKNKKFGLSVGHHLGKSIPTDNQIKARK

Compound | NQO1 Initial Velocity @ 1 μM [1] | Solubility in CH2Cl2 ([2]; CH2Cl2, Table 4.3) [mM] | Solubility in DMSO ([2]; DMSO, Table 4.3) [mM] | solubility [2, 6] [mM] | solubility [2, 7] [mM] | solubility [2, 8] [mM] | solubility [2, 9] [mM] | solubility [4] [mM] | solubility at 30 min [5] [mM] | IC50 [3, 10] [µM] | IC50 [3, 11] [µM] | IC50 [3, 12] [µM] | IC50 [3, 13] [µM] | Fold Protection of MCF7 cells w/ 25 μM dicoumarol ([3]; Table 1) | Fold protection by DIC ([3]; Table 4.2) | further results
CO[C@@]12[C@H](COC(N)=O)C3=C(C(=O)C(C)=C(N)C3=O)N1C[C@@H]1N[C@@H]12 [MMC, mitomycin C, reference compound] |  |  |  |  |  |  |  |  |  |  |  |  |  | 1 |  | IC50 ([3]; Table 1, read-out: MCF7 IC50): 14 µM
CC1=C(N2CC2)C(=O)C(CO)=C(N2CC2)C1=O [RH1, reference compound] |  |  |  |  |  |  |  |  |  |  |  |  |  | 0.85 |  | IC50 ([3]; Table 1, read-out: MCF7 IC50): 0.21 µM
Cc1cc(=O)n(C)c2c1C(=O)c1c(C)cc(=O)n(C)c1C2=O [SCH, reference compound] | 32 ± 2 |  |  |  | 60 (≈ 17900 µg/mL) | 25 (≈ 7460 µg/mL) | 15 (≈ 4470 µg/mL) | 3.7 (≈ 1100 µg/mL) |  | 3.9 |  |  |  | 3.5 |  | 
Cc1cc(=O)[nH]c2c1C(=O)c1c(C)cc(=O)n(C3CCCCCCC3)c1C2=O [Compound 4-39] |  |  |  | 46 (≈ 17500 µg/mL) |  |  |  |  | 0.024 (≈ 9.13 µg/mL) |  | 0.83 ± 0.07 | > 0.5 | 4.1 ± 0.8 |  | 3.8 | solubility ([2]; CH2Cl2, Table 4.3, read-out: Solubility in CH2Cl2): 120 mM (≈ 45700 µg/mL); solubility ([2]; DMSO, Table 4.3, read-out: Solubility in DMSO): 71 mM (≈ 27000 µg/mL)
CCc1cc(=O)[nH]c2c1C(=O)c1c(CC)cc(=O)n(C)c1C2=O [Compound 4-29] | 250 ± 20 | 10 (≈ 3120 µg/mL) | 21 (≈ 6560 µg/mL) | 46 (≈ 14400 µg/mL) | 46 (≈ 14400 µg/mL) | 10 (≈ 3120 µg/mL) | 21 (≈ 6560 µg/mL) | 6.2 (≈ 1940 µg/mL) | 0.084 (≈ 26.2 µg/mL) | 5 | 3.8 ± 1.2 | > 0.5 | 4.8 ± 1.1 | 1.2 | 1.3 | 
Cc1cc(=O)[nH]c2c1C(=O)c1c(C)cc(=O)n(CCCO)c1C2=O [Compound 9-281] | 1600 ± 200 | 0.3 (≈ 98.5 µg/mL) | 24 (≈ 7880 µg/mL) | 11 (≈ 3610 µg/mL) | 11 (≈ 3610 µg/mL) | 0.3 (≈ 98.5 µg/mL) | 24 (≈ 7880 µg/mL) | 0.67 (≈ 220 µg/mL) | 0.485 (≈ 159 µg/mL) | 0.79 ± 0.1 | 0.68 ± 0.15 | > 0.5 | 3.4 ± 0.6 | 4 | 5.0 | 
Cc1cc(=O)[nH]c2c1C(=O)c1c(C)cc(=O)[nH]c1C2=O [Compound 2-78, reference compound] |  |  |  |  |  |  |  |  |  |  |  |  |  |  |  | solubility in solvents evaluated [2]: insoluble in all solvents evaluated except concentrated acids or bases
CCc1cc(=O)[nH]c2c1C(=O)c1c(C)cc(=O)n(C)c1C2=O [Compound 4-11] |  | 11 (≈ 3280 µg/mL) | 16 (≈ 4770 µg/mL) | 35 (≈ 10400 µg/mL) | 35 (≈ 10400 µg/mL) | 11 (≈ 3280 µg/mL) | 16 (≈ 4770 µg/mL) | 3.9 (≈ 1160 µg/mL) | 0.105 (≈ 31.3 µg/mL) |  |  | > 0.5 |  |  |  | IC50 [3, 14]: 0.55 ± 0.06 µM; IC50 [3, 15]: 4.9 ± 0.8 µM; Fold protection by DIC ([3]; Table 4.1): 8.9

More lines, main results first:

NQO1 Initial Velocity @ 1 μM [1] | Solubility in CH2Cl2 ([2]; CH2Cl2, Table 4.3) [mM] | Solubility in DMSO ([2]; DMSO, Table 4.3) [mM] | solubility [2, 6] [mM] | solubility [2, 7] [mM] | solubility [2, 8] [mM] | solubility [2, 9] [mM] | solubility [4] [mM] | solubility at 30 min [5] [mM] | Compound | IC50 [3, 10] [µM] | IC50 [3, 11] [µM] | IC50 [3, 12] [µM] | IC50 [3, 13] [µM] | Fold Protection of MCF7 cells w/ 25 μM dicoumarol ([3]; Table 1) | Fold protection by DIC ([3]; Table 4.2) | further results
350 ± 10 | 17 (≈ 6020 µg/mL) | 10 (≈ 3540 µg/mL) | 49 (≈ 17400 µg/mL) | 49 (≈ 17400 µg/mL) | 17 (≈ 6020 µg/mL) | 10 (≈ 3540 µg/mL) | 12 (≈ 4250 µg/mL) | < 0.005 | CCCCn1c2c(c(C)cc1=O)C(=O)c1c(CCC)cc(=O)[nH]c1C2=O [Compound 4-27] | 6.3 | 6.3 ± 1.1 | > 0.5 | 6.8 ± 1.6 | 1.1 | 1.1 | 
250* | 2.0 (≈ 625 µg/mL) | 4.2 (≈ 1310 µg/mL) | 10 (≈ 3120 µg/mL) | 10 (≈ 3120 µg/mL) | 2 (≈ 625 µg/mL) | 4.2 (≈ 1310 µg/mL) |  | 0.035 (≈ 10.9 µg/mL) | CCCc1cc(=O)[nH]c2c1C(=O)c1c(C)cc(=O)n(C)c1C2=O [Compound 4-12] | 3.4 |  | > 0.5 |  | 1.6 |  | IC50 [3, 14]: 3.4 ± 0.6 µM; IC50 [3, 15]: 5.3 ± 1.2 µM; Fold protection by DIC ([3]; Table 4.1): 1.6
75 ± 4 | 35 (≈ 13400 µg/mL) | 7.1 (≈ 2720 µg/mL) | 64 (≈ 24500 µg/mL) | 64 (≈ 24500 µg/mL) | 35 (≈ 13400 µg/mL) | 7.1 (≈ 2720 µg/mL) | 17 (≈ 6500 µg/mL) | < 0.005 | CCCCn1c2c(c(CCC)cc1=O)C(=O)c1c(CCC)cc(=O)[nH]c1C2=O [Compound 4-28] | 36 | 36 ± 11 | > 0.5 | 31 ± 10 | 0.9 | 0.9 | 
600 ± 100 | 6.1 (≈ 1910 µg/mL) | 10 (≈ 3120 µg/mL) | 18 (≈ 5620 µg/mL) | 18 (≈ 5620 µg/mL) | 6.1 (≈ 1910 µg/mL) | 10 (≈ 3120 µg/mL) | 4.6 (≈ 1440 µg/mL) | 0.059 (≈ 18.4 µg/mL) | CCCc1cc(=O)n(C)c2c1C(=O)c1c(C)cc(=O)[nH]c1C2=O [Compound 4-9] | 0.93 |  | > 0.5 |  | 2.8 |  | IC50 [3, 14]: 0.9 ± 0.25 µM; IC50 [3, 15]: 2.6 ± 0.6 µM; Fold protection by DIC ([3]; Table 4.1): 2.8
